Columns and labels:
[1] = tested on: BCL-2 G101V knock-in cell line H96 (derive from RS4;11); assay: Bcl 2-G101V Knock-In RS4;11 Cell Proliferation Assay; assay type: cell-based; details: Homo sapiens, RS4;11 Bcl-2 G101V knock-in clone H96, 48 hrs, CellTiter-GLO, read-out: Cellular proliferation assay (IC50, nM) RS4
Procedure, shortened: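 CellTiter-Glo luminescence after 48 h, 37 °C compound treatment (10 concentrations, maximum 1 μM or 10 μM) gave mean IC50 values. Cells were 50,000 per well of H96, a BCL2-G101V knock-in single clone derived from RS4;11 by Cas9 editing.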

[2] = tested on: RS4;11 (BCL-2 dependent acute lymphoblastic leukemia cell line); assay: RS4;11 Cell Proliferation Assay; assay type: cell-based; details: Homo sapiens, RS4-11, RS4;11 cells, read-out: Cellular proliferation assay (IC50, nM) RS4
Procedure, shortened: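 Viability measured via CellTiter-Glo luminescence after a 48 h, 37 °C exposure to compounds (10 points, highest 1 μM). Seeding was 50,000 RS4;11 cells per well in 10% FBS RPMI-1640; IC50 given as mean.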

[3] = biological target: Recombinant human Bcl-2 protein (Homo sapiens (Human), UniProt P10415); assay: Bcl-2 TR-FRET Assay; assay type: binding; details: Bcl-2 wild type, TR-FRET; read-out: Biochemical assay (IC50, nM) Bcl-2 WT
Procedure, shortened: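 In pH 7.5 phosphate buffer containing NaCl, EDTA, Tween-20 and BSA, 0.05 nM Bcl-2 saw serially diluted compound for 0.5 h before 0.5 nM FITC-Bak peptide was added. Signal ratio at 520/490 nm after 1 h yielded IC50.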

[4] = tested on: recombinant human Bcl-2-G101V protein; assay: Bcl-2-G101V TR-FRET Assay; assay type: binding; details: ratio of biochemical IC50 Bcl-2 G101V / Bcl-2 WT
Procedure, shortened: (§1)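 TR-FRET read at excitation 337 nm with emission at 490 nm and 520 nm. Inhibition of Bcl-2-G101V binding to its ligand across increasing compound concentrations was calculated from the 490/520 nm fluorescence ratio, and IC50 values came from four-parameter logistic fits.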

[5] = biological target: recombinant human Bcl-2-G101V protein (Homo sapiens (Human), UniProt P10415, G101V); assay: Bcl-2-G101V TR-FRET Assay; assay type: binding; details: Bcl-2 G101V mutant, TR-FRET; read-out: Biochemical assay (IC50, nM) Bcl-2 G101V
Procedure, shortened: as §1

## CC(C)c1ccccc1[C@@H]1CN(Cc2ccnc3c2OC(C)(C)CO3)CCN1C1CC2(C1)CN(c1ccc(C(=O)NS(=O)(=O)c3ccc(NC[C@H]4CC[C@](C)(O)CC4)c([N+](=O)[O-])c3)c(Oc3cnc4[nH]cc(F)c4c3)c1)C2 [Example 313, 4-(6-((R)-4-((2,2-dimethyl-2,3-dihydro-[1,4]dioxino[2,3-b]pyridin-8-yl)methyl)-2-(2-isopropylphenyl)piperazin-1-yl)-2-azaspiro[3.3]heptan-2-yl)-2-((3-fluoro-1H-pyrrolo[2,3-b]pyridin-5-yl)oxy)-N-((4-((((1r,4r)-4-hydroxy-4-methylcyclohexyl)methyl)amino)-3-nitrophenyl)sulfonyl)benzamide]
[1]
  IC50: 0.4 nM
[2]
  IC50: 0.18 nM
[3]
  IC50: 0.048 nM
[4]
  Ratio of Bcl-2 G101V/WT: 3.9
[5]
  IC50: 0.19 nM

## CC(C)c1ccccc1[C@@H]1CN(Cc2ccnc3c2OC(C)(C)CO3)CCN1C1CC2(C1)CN(c1ccc(C(=O)NS(=O)(=O)c3ccc(NC[C@H]4CC[C@](C)(O)CC4)c([N+](=O)[O-])c3)c(Oc3cnc4[nH]ccc4c3)c1)C2 [Example 314, 2-((1H-pyrrolo[2,3-b]pyridin-5-yl)oxy)-4-(6-((R)-4-((2,2-dimethyl-2,3-dihydro-[1,4]dioxino[2,3-b]pyridin-8-yl)methyl)-2-(2-isopropylphenyl)piperazin-1-yl)-2-azaspiro[3.3]heptan-2-yl)-N-((4-((((1r,4r)-4-hydroxy-4-methylcyclohexyl)methyl)amino)-3-nitrophenyl)sulfonyl)benzamide]
[1]
  IC50: 0.61 nM
[2]
  IC50: 0.17 nM
[3]
  IC50: 0.032 nM
[4]
  Ratio of Bcl-2 G101V/WT: 4.2
[5]
  IC50: 0.13 nM

## CC(C)c1ccccc1[C@@H]1CN(Cc2cccc3c2OCC(C)(C)O3)CCN1C1CC2(C1)CN(c1ccc(C(=O)NS(=O)(=O)c3ccc(NC[C@H]4CC[C@](C)(O)CC4)c([N+](=O)[O-])c3)c(Oc3cnc4[nH]cc(F)c4c3)c1)C2 [Example 315, 4-(6-((R)-4-((2,2-dimethyl-2,3-dihydrobenzo[b][1,4]dioxin-5-yl)methyl)-2-(2-isopropylphenyl)piperazin-1-yl)-2-azaspiro[3.3]heptan-2-yl)-2-((3-fluoro-1H-pyrrolo[2,3-b]pyridin-5-yl)oxy)-N-((4-((((1r,4r)-4-hydroxy-4-methylcyclohexyl)methyl)amino)-3-nitrophenyl)sulfonyl)benzamide]
[1]
  IC50: 0.86 nM
[2]
  IC50: 0.18 nM
[3]
  IC50: 0.31 nM
[4]
  Ratio of Bcl-2 G101V/WT: 3.2
[5]
  IC50: 0.99 nM

## CC(C)c1ccccc1[C@@H]1CN(Cc2ccnc3c2OCC(C)(C)O3)CCN1C1CC2(C1)CN(c1ccc(C(=O)NS(=O)(=O)c3ccc(NC[C@H]4CC[C@](C)(O)CC4)c([N+](=O)[O-])c3)c(Oc3cnc4[nH]ccc4c3)c1)C2 [Example 316, 2-((1H-pyrrolo[2,3-b]pyridin-5-yl)oxy)-4-(6-((R)-4-((3,3-dimethyl-2,3-dihydro-[1,4]dioxino[2,3-b]pyridin-8-yl)methyl)-2-(2-isopropylphenyl)piperazin-1-yl)-2-azaspiro[3.3]heptan-2-yl)-N-((4-((((1r,4r)-4-hydroxy-4-methylcyclohexyl)methyl)amino)-3-nitrophenyl)sulfonyl)benzamide]
[1]
  IC50: 0.53 nM
[2]
  IC50: 0.16 nM
[3]
  IC50: 0.022 nM
[4]
  Ratio of Bcl-2 G101V/WT: 4.5
[5]
  IC50: 0.1 nM

## COc1cc(CN2CCN(C3CC4(C3)CN(c3ccc(C(=O)NS(=O)(=O)c5ccc(NC[C@H]6CC[C@](C)(O)CC6)c([N+](=O)[O-])c5)c(Oc5cnc6[nH]cc(F)c6c5)c3)C4)[C@H](c3ccccc3C(C)C)C2)ccc1Cl [Example 325, 4-(6-((R)-4-(4-chloro-3-methoxybenzyl)-2-(2-isopropylphenyl)piperazin-1-yl)-2-azaspiro[3.3]heptan-2-yl)-2-((3-fluoro-1H-pyrrolo[2,3-b]pyridin-5-yl)oxy)-N-((4-((((1r,4r)-4-hydroxy-4-methylcyclohexyl)methyl)amino)-3-nitrophenyl)sulfonyl) benzamide]
[1]
  IC50: 0.53 nM
[2]
  IC50: 0.21 nM
[3]
  IC50: 0.49 nM
[4]
  Ratio of Bcl-2 G101V/WT: 2
[5]
  IC50: 0.97 nM

## COc1cc(CN2CCN(C3CC4(C3)CN(c3ccc(C(=O)NS(=O)(=O)c5ccc(NC[C@H]6CC[C@](C)(O)CC6)c([N+](=O)[O-])c5)c(Oc5cnc6[nH]ccc6c5)c3)C4)[C@H](c3ccccc3C(C)C)C2)cc2c1OC(C)(C)C=C2 [Example 329, 2-((1H-pyrrolo[2,3-b]pyridin-5-yl)oxy)-N-((4-((((1r,4r)-4-hydroxy-4-methylcyclohexyl)methyl)amino)-3-nitrophenyl)sulfonyl)-4-(6-((R)-2-(2-isopropylphenyl)-4-((8-methoxy-2,2-dimethyl-2H-chromen-6-yl)methyl)piperazin-1-yl)-2-azaspiro[3.3]heptan-2-yl) benzamide]
[1]
  IC50: 1.3 nM
[2]
  IC50: 0.25 nM
[3]
  IC50: 0.15 nM
[4]
  Ratio of Bcl-2 G101V/WT: 3.1
[5]
  IC50: 0.47 nM

## COc1cc(CN2CCN(C3CC4(C3)CN(c3ccc(C(=O)NS(=O)(=O)c5ccc(NC[C@H]6CC[C@](C)(O)CC6)c([N+](=O)[O-])c5)c(Oc5cnc6[nH]cc(F)c6c5)c3)C4)[C@H](c3ccccc3C(C)C)C2)cc2c1OC(C)(C)C=C2 [Example 330, 2-((3-fluoro-1H-pyrrolo[2,3-b]pyridin-5-yl)oxy)-N-((4-((((1r,4r)-4-hydroxy-4-methylcyclohexyl)methyl)amino)-3-nitrophenyl)sulfonyl)-4-(6-((R)-2-(2-isopropylphenyl)-4-((8-methoxy-2,2-dimethyl-2H-chromen-6-yl)methyl)piperazin-1-yl)-2-azaspiro [3.3]heptan-2-yl)benzamide]
[1]
  IC50: 0.79 nM
[2]
  IC50: 0.18 nM
[3]
  IC50: 0.26 nM
[4]
  Ratio of Bcl-2 G101V/WT: 2.4
[5]
  IC50: 0.62 nM

## COc1cc(CN2CCN(C3CC4(C3)CN(c3ccc(C(=O)NS(=O)(=O)c5ccc(NC[C@H]6CC[C@](C)(O)CC6)c([N+](=O)[O-])c5)c(Oc5cnc6[nH]ccc6c5)c3)C4)[C@H](c3ccccc3C(C)C)C2)cc2occc12 [Example 331, 2-((1H-pyrrolo[2,3-b]pyridin-5-yl)oxy)-N-((4-((((1r,4r)-4-hydroxy-4-methylcyclohexyl)methyl)amino)-3-nitrophenyl)sulfonyl)-4-(6-((R)-2-(2-isopropylphenyl)-4-((4-methoxybenzofuran-6-yl)methyl)piperazin-1-yl)-2-azaspiro[3.3]heptan-2-yl)benzamide]
[1]
  IC50: 0.69 nM
[2]
  IC50: 0.16 nM
[3]
  IC50: 0.29 nM
[4]
  Ratio of Bcl-2 G101V/WT: 2.1
[5]
  IC50: 0.62 nM

## COc1cc(CN2CCN(C3CC4(C3)CN(c3ccc(C(=O)NS(=O)(=O)c5ccc(NC[C@H]6CC[C@](C)(O)CC6)c([N+](=O)[O-])c5)c(Oc5cnc6[nH]cc(F)c6c5)c3)C4)[C@H](c3ccccc3C(C)C)C2)cc2occc12 [Example 332, 2-((3-fluoro-1H-pyrrolo[2,3-b]pyridin-5-yl)oxy)-N-((4-((((1r,4r)-4-hydroxy-4-methylcyclohexyl)methyl)amino)-3-nitrophenyl)sulfonyl)-4-(6-((R)-2-(2-isopropylphenyl)-4-((4-methoxybenzofuran-6-yl)methyl)piperazin-1-yl)-2-azaspiro[3.3]heptan-2-yl)benzamide]
[1]
  IC50: 0.54 nM
[2]
  IC50: 0.17 nM
[3]
  IC50: 0.7 nM
[4]
  Ratio of Bcl-2 G101V/WT: 1.6
[5]
  IC50: 1.1 nM

## COc1cc(CN2CCN(C3CC4(C3)CN(c3ccc(C(=O)NS(=O)(=O)c5ccc(NC[C@H]6CC[C@](C)(O)CC6)c([N+](=O)[O-])c5)c(Oc5cnc6[nH]cc(F)c6c5)c3)C4)[C@H](c3ccccc3C(C)C)C2)cc2c1OCCC2(C)C [Example 333, 2-((3-fluoro-1H-pyrrolo[2,3-b]pyridin-5-yl)oxy)-N-((4-((((1r,4r)-4-hydroxy-4-methylcyclohexyl)methyl)amino)-3-nitrophenyl)sulfonyl)-4-(6-((R)-2-(2-isopropylphenyl)-4-((8-methoxy-4,4-dimethylchroman-6-yl)methyl)piperazin-1-yl)-2-azaspiro[3.3]heptan-2-yl) benzamide]
[1]
  IC50: 0.26 nM
[2]
  IC50: 0.13 nM
[3]
  IC50: 0.11 nM
[4]
  Ratio of Bcl-2 G101V/WT: 3.2
[5]
  IC50: 0.37 nM

## COc1cc(CN2CCN(C3CC4(C3)CN(c3ccc(C(=O)NS(=O)(=O)c5ccc(NC[C@H]6CC[C@](C)(O)CC6)c([N+](=O)[O-])c5)c(Oc5cnc6[nH]ccc6c5)c3)C4)[C@H](c3ccccc3C(C)C)C2)cc2c1OCCC2(C)C [Example 334]
[1]
  IC50: 0.65 nM
[2]
  IC50: 0.17 nM
[3]
  IC50: 0.12 nM
[4]
  Ratio of Bcl-2 G101V/WT: 2.8
[5]
  IC50: 0.33 nM
